How the values were obtained:
[1] = biological target: T1, thioredoxin reductase (TrxR), rat liver (Rattus norvegicus, UniProt O89049); assay: DTNB reduction assay with purified rat liver TrxR, […] min preincubation, […] nm
T1 construct: gene Txnrd1

[2] = biological target: T1, thioredoxin reductase (TrxR), rat liver; assay: DTNB reduction assay with purified rat liver TrxR, reference inhibitor

T1 sequence (O89049 whole entry): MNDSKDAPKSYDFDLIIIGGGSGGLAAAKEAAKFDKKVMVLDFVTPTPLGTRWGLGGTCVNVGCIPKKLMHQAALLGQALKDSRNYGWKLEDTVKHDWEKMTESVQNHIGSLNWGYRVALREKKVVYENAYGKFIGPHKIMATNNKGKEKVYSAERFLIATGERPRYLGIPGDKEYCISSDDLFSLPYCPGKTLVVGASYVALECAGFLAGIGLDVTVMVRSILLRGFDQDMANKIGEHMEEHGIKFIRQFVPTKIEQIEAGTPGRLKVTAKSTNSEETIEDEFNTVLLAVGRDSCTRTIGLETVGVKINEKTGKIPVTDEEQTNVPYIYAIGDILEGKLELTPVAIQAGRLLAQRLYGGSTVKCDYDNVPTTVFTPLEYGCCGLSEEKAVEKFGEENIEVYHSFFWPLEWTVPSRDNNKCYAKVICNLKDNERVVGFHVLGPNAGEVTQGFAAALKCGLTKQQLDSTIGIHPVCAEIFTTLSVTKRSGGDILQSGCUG

Structure (SMILES) | IC50 [1] [nM] | IC50 [2] [nM]
CC[P+](CC)(CC)[Au-][C]#Cc1ccc(OC)cc1 [compound 1, complex 1] | 50 ± 10 | –
CC[P](CC)(CC)=[Au][S][C@@H]1O[C@H](COC(C)=O)[C@@H](OC(C)=O)[C@H](OC(C)=O)[C@H]1OC(C)=O [AF, Auranofin] | – | 30

From publication PMC11975047, “Antiproliferative effects, mechanism of action and tumor reduction studies in a lung cancer xenograft mouse model of an organometallic gold(I) alkynyl complex” (RSC Medicinal Chemistry, 2025)
